# Tests used:
# [1] = target: VL2-deleted mutant of the PH domain of Akt (Homo sapiens, UniProt P31749); assay: Surface plasmon resonance binding, VL2-deleted Akt PH domain; details: SPR
# Protocol: Binding experiments were performed using a Biacore T100 system (GE Healthcare, Piscataway, N.J.). The GST-PH domain fusion proteins were immobilized on a CM5 S Sensorchip using Biacore's Amine Coupling Kit to a level of 17,000 response units. VE5 compounds and di-octanoyl PIP3 at concentrations ranging from 0.1 to 100 μM and 1 to 20 μm, respectively, were injected at a high flow rate (30 μL/min) over the biosensor surface for binding analyses. DMSO concentrations in all samples and running buffer were 1% (v/v) or less. Data were analyzed using Biacore T100 Evaluation Software.
# [2] = test system: LNCaP-abl xenograft tumors; assay: LNCaP-abl subcutaneous xenograft in athymic nude mice; assay type: in vivo
# Protocol: (§1) Male athymic nude mice (Hsd:Athymic Nude-Foxn1^nu/nu, 5-7 weeks of age) were purchased from Harlan Laboratories and group-housed under conditions of constant photoperiod (12 hours light: 12 hours dark) with ad libitum access to sterilized food and water. Ectopic tumors were established in athymic nude mice by subcutaneous injection of 1×10^6 PC-3-luc or 2×10^6 LNCaP-abl cells in a total volume of 0.1 mL serum-free medium containing 50% Matrigel (BD Biosciences). The establishment and growth of tumors were monitored weekly by measurement with calipers (tumor volume=width^2×length×0.52) and bioluminescence (PC-3-luc) using the IVIS™ imaging system (Xenogen Corporation, Alameda, Calif.). For bioluminescent imaging, mice anesthetized with isoflurane were imaged at 15, 20 and 25 min after intraperitoneal administration of firefly luciferin (150 mg/kg; Caliper Life Sciences) to capture maximal luminescence. Data acquisition and analysis were achieved using the Living Image® software (Xenogen). […] Body weights and tumor burdens were measured weekly. At the study endpoint, mice were euthanized, and blood was collected by cardiac puncture from all mice and submitted to The Ohio State University Comparative Pathology and Mouse Phenotyping Shared Resource for determination of complete blood counts and serum chemistry.
# [3] = Toxicologic evaluation in PC-3-luc tumor-bearing mice; assay type: in vivo
# Protocol: as §1
# [4] = test system: PC-3-luc xenograft tumors; assay: PC-3-luc subcutaneous xenograft in athymic nude mice; assay type: in vivo; details: 50 mg/kg daily intraperitoneal, 21 days
# Protocol: as §1
# [5] = test system: PDK-1 membrane localization; assay: Immunofluorescence, membrane localization of PDK-1 at higher concentrations; assay type: cell-based; details: 6 hours of exposure
# Protocol: Cells were stained for endogenous PH domain-containing proteins (Akt, PHLPP, PDK-1, ILK, BTK) by incubation with specific antibodies (1:100), followed by incubation with the Alexa Fluor 555-conjugated goat anti-rabbit or Alexa Fluor 488-conjugated goat anti-mouse IgG (1:200) at room temperature for 2 hours. Both primary and secondary antibodies were diluted in incubation buffer containing 0.1% Triton X-100 and 0.2% bovine serum albumin in PBS. The cells were washed in PBS after each step and mounted using […] mounting medium supplemented with DAPI (Vector Laboratories Inc., Burlingame, Calif.). The slides were allowed to set for at least 4 hours before confocal images were acquired using a Zeiss LSM 510 inverted confocal laser scanning microscope operated with Zeiss LSM 510 software. Image analysis was performed using ImageJ (NIH) software.
# [6] = 50 mg/kg daily intraperitoneal, 21 days
# [7] = values within the normal ranges for mice
# Sequence of VL2-deleted mutant of the PH domain of Akt (P31749 whole entry, looked up, stated change not applied, the tested form may be a part): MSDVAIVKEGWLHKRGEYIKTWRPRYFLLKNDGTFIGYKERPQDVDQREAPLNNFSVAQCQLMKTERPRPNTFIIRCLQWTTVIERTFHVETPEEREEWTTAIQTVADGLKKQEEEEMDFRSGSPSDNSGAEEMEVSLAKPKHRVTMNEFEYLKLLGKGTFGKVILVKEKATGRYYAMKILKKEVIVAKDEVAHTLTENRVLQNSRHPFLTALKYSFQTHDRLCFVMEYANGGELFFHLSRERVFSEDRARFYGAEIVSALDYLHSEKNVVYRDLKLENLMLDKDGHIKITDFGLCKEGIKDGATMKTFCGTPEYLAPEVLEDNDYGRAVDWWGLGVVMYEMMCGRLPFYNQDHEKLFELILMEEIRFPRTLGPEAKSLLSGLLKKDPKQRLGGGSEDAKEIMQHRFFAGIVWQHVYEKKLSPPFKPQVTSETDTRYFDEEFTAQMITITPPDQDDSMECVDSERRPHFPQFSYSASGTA
smiles,measurement,setting,value
"Cc1c(O)cc2c(c1C)O[C@](C)(CCCC(C)C)CC2 [γ-VE5, (R)-2,7,8-trimethyl-2-(4-methylpentyl)-chroman-6-ol]",Kd,[1],30 ± 4 µM
same,LNCaP-abl tumor growth relative to vehicle-treated controls,[2]; [6],significantly inhibited tumor growth
same,"intratumoral phosphorylation of Akt at Ser473, MDM2 and IKKα","[2]; LNCaP-abl tumors, relative to vehicle-treated controls",reduced phosphorylation
same,gross pathology findings at necropsy,[3]; [6],abdominal adhesions and variable amounts of clear fluid within the abdomen
same,change of mean body weight over the treatment period,"[3]; 50 mg/kg daily intraperitoneal, 21 days, vehicle −0.2 grams",−0.7 grams
same,change of mean body weight over the treatment period,"[3]; 50 mg/kg daily intraperitoneal, 21 days, vehicle −0.7%",−2.3%
same,hematological findings relative to controls,[3]; [7],"reductions in hematocrit, red blood cell numbers and hemoglobin concentration"
same,serum chemistry findings,[3]; [7],increase in aspartate aminotransferase and a decrease in serum albumin concentrations
same,PC-3-luc tumor growth relative to vehicle-treated controls (bioluminescence),[4]; P<0.05,inhibited PC-3-luc tumor growth
same,"intratumoral phosphorylation of Akt, MDM2 and IKKα",[4]; PC-3-luc tumors,suppressed phosphorylation of Akt at Ser^473 without disrupting that at Thr^308
same,"membrane-associated PDK-1, share of total immunofluorescence signal",[5]; 25 μM,approximately 50%
same,"membrane-associated PDK-1, share of total immunofluorescence signal",[5]; 35 μM,greater than 90%

# Reference: US20140031388A1, “AKT INACTIVATION BY TOCOPHERYL DERIVATIVES” (priority 2012, published 2014)
